In the supplement of paper PMC10477900:
Where a name gives a salt, the structure may show the parent alone.

Legend:
[1] = system: HCT116; details: 72 h
Procedure: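 HCT116 control and MTA1-KO (CRISPR) HCT116 cells were seeded in 384-well plates (800 cells/well), treated 16 h later with 237 metabolism-related anticancer drugs at five doses (10 uM, 2 uM, 400 nM, 80 nM, 16 nM) for 72 h, two replicates; viability by CCK8. Values are % inhibition of viability relative to untreated cells, plus fitted IC50.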

[2] = system: HCT116; assay: viability inhibition vs untreated; higher = more cytotoxic; details: 72 h

Compound | IC50 ([1]; genotype: MTA1-KO) [µM] | IC50 ([1]; genotype: control) [µM] | viability inhibition ([2]; genotype: MTA1-KO, 16 nM) [%] | viability inhibition ([2]; genotype: MTA1-KO, 80 nM) [%] | viability inhibition ([2]; genotype: MTA1-KO, 400 nM) [%] | viability inhibition ([2]; genotype: MTA1-KO, 2000 nM) [%] | viability inhibition ([2]; genotype: MTA1-KO, 10000 nM) [%] | viability inhibition ([2]; genotype: control, 16 nM) [%] | viability inhibition ([2]; genotype: control, 80 nM) [%] | viability inhibition ([2]; genotype: control, 400 nM) [%] | viability inhibition ([2]; genotype: control, 2000 nM) [%] | viability inhibition ([2]; genotype: control, 10000 nM) [%]
Cc1c(C(=O)N2CCOc3ccc(-c4ccc(N)nc4)cc3C2)ccc(S(C)(=O)=O)c1F [XL388] | 4.64 | > 10 | -7.29 | 5.97 | 0.224 | 19 | 74.8 | 0.193 | -2.53 | -7.3 | -11.7 | 47
CC(C)(O)CNc1nc(Nc2ccnc(C(F)(F)F)c2)nc(-c2cccc(C(F)(F)F)n2)n1 [Enasidenib] | > 10 | > 10 | -26 | -20.5 | -17.3 | -19.3 | -24.8 | -12.3 | -12.7 | -4.75 | -20.9 | -15.6
COc1ccccc1OCC(O)COC(N)=O (configuration not stated) [Methocarbamol] | > 10 | > 10 | -9.86 | -16.2 | -9.99 | -8.84 | -12 | -5.51 | -3.73 | -0.351 | 5.2 | 11
O=C(c1ccc(NS(=O)(=O)c2cccc3cccnc23)cc1)N1CCN(CC2CC2)CC1 [Mitapivat] | > 10 | > 10 | 1.32 | 0.728 | -12.6 | -14.4 | -2.88 | -8.53 | -14.2 | -22.8 | -10.3 | -12.3
O=C(Nc1cccc(C(F)(F)F)c1)Nc1cc(S(=O)(=O)NC2CC2)ccc1-c1ccsc1 [AGI6780] | > 10 | > 10 | 4.84 | -6.61 | 9.84 | 15.6 | 49.9 | 13.6 | 18.2 | 3.86 | 16.8 | 22.5
COC(=O)[C@@H](N)CCCN=C(N)N[N+](=O)[O-] [L-NAME hydrochloride] | > 10 | > 10 | -9.14 | -19.4 | -19.9 | -26 | 24.3 | -17.9 | -12.2 | -11.4 | -20.1 | -19.3
Nc1nc2[nH]cc(CCc3ccc(C(=O)N[C@@H](CCC(=O)O)C(=O)O)cc3)c2c(=O)[nH]1 [Pemetrexed disodium] | > 10 | 1.18 | -3.16 | 1.56 | 17.8 | 28.6 | 32.9 | 21.1 | 13.2 | 10.5 | 70.6 | 69.4
CN(Cc1cnc2nc(N)nc(N)c2n1)c1ccc(C(=O)N[C@@H](CCC(=O)O)C(=O)O)cc1 [Methotrexate] | > 10 | 8.92 | 7.18 | -2.93 | -6.45 | -1.18 | 33 | 17.9 | 13.5 | 16.6 | 6.71 | 63.6
COc1cc2c(cc1O)CC[C@@H]1[C@@H]2CC[C@]2(C)[C@@H](O)CC[C@@H]12 [2-Methoxyestradiol] | 3.34 | > 10 | 12.6 | 9.89 | 15.7 | 38.7 | 80.2 | 8.28 | 14.6 | 22.6 | 24.1 | 33.6
COc1ccc(-c2ccc3c(N4CCOC[C@@H]4C)nc(N4CCOC[C@@H]4C)nc3n2)cc1CO [AZD8055] | 0.843 | > 10 | -21.9 | -16.3 | 15.5 | 41.3 | 67.5 | 0.243 | 13.1 | 36.1 | 46.1 | 37.6
Cc1ccc(Oc2nc3cc(-c4ccc(-c5ccccc5)cc4)c(Cl)cc3[nH]2)cc1C(=O)O [MK3903] | 5.67 | 7.34 | -12.7 | -22.9 | -10.6 | 0.304 | 68 | 11.1 | 8.79 | 24.8 | 19.4 | 59.8
Nc1nc(NC2CC2)cc(-c2cccc(Cl)c2Cl)n1 [TH588] | 5.34 | 8.67 | -0.076 | 6.2 | 2.73 | 14.7 | 80.3 | -7.89 | -5.19 | -7.31 | -7.46 | 74
Cc1ccc2c(c1)C(=O)[C@]1(O)CCN(c3ccccc3)C1=N2 [(-)-Blebbistatin] | > 10 | > 10 | 2.62 | -5.47 | -2.06 | -3.88 | -5.36 | -9 | -4.56 | -13.5 | -18.9 | -8.68
C/C(=N\NC(=O)c1cccc(S(=O)(=O)N2CCOCC2)c1)c1cc(Cl)ccc1O [SP2509] | 0.69 | 0.493 | 13 | 7.45 | 18 | 98.5 | 99.6 | -5.87 | -2.4 | 14.8 | 104 | 103
CCc1nc(N)nc(N)c1-c1ccc(Cl)cc1 [Pyrimethamine] | 6.54 | 4.89 | -6.42 | -11.6 | -0.866 | 10.9 | 60.5 | 2.52 | 7.55 | 13.3 | 20.1 | 82.3
NS(=O)(=O)c1cc2c(cc1Cl)NC(C(Cl)Cl)NS2(=O)=O (configuration not stated) [Trichlormethiazide] | > 10 | > 10 | -29.5 | -30.5 | -28.4 | -24.3 | -25.6 | -19.9 | -23.8 | -25.7 | -14.7 | -2.52
